Experimental data reported in patent US12662458B2, “Solid forms of a compound” (Denali Therapeutics Inc., priority 2020, dated 2026).
In brackets after ≈: the same amount, converted by molar mass.

Columns and labels:
[1] = Solid form stability on storage; assay type: physicochemical; settings: for solid form stability (form change, weight gain, purity changes): 60° C., up to 4 weeks
Protocol: To evaluate the solid form stability, Forms A and C were stored under 25° C./60% RH (open), 40° C./75% RH (open), and 60° C. for up to 4 weeks. Samples were analyzed by XRPD, TGA, DSC, and HPLC purity.

[2] = Plasma PK in rats, nanosuspension; assay type: in vivo; settings: nanosuspension in deionized water, single oral 25 mg/kg
Protocol: Wistar Han rats were administered a nanosuspension of Form A or Form C as a single oral administration at 25 mg/kg. The nanosuspensions were prepared by suspending nano-milled Form A or Form C in deionized water (2.5 mg/mL) to obtain opaque homogenous suspensions. Blood samples were collected at 0.25, 0.5, 1, 2, 4, 8, 24, 48, and 72 hours post-dose. Concentrations of Compound I in plasma samples were determined by LC/MS/MS.

[3] = Slurry interconversion of Form A and Form C; assay type: physicochemical
Protocol: Form A slurry converts to Form C in the presence of Form C seed. For example, Form A (10 mg) and Form C (10 mg) were stirred in saturated IPA/water and MeCN/water at temperatures ranging from 5-60° C. […] Form A could only be prepared in a location uncontaminated with Form C (e.g., locations where From C had not previously existed).

[4] = Plasma PK in monkeys, powder in capsule; assay type: in vivo; settings: single oral 15 mg/kg; for AUC(0-t): read-out: AUC0-24 h
Protocol: Non-naïve male cynomolgus monkeys were used in this study with at least a 7-day washout period prior to dosing Animals were administered micronized Form A, unmicronized Form A, or micronized Form C powder in capsule by single oral administration at 15 mg/kg. The capsules were prepared according to the animals' body weights on dosing day. Blood samples were collected at 0.25, 0.5, 1, 2, 4, 8, 24, 48, and 72 hours post-dose.

[5] = Biorelevant media solubility of Forms A and C; assay type: physicochemical; settings: for Solubility / Final XRPD: 37° C.
Protocol: Biorelevant media solubility of Forms A and C were studied in water, SGF, FaSSIF, and FeSSIF at 37° C. 10-20 mg of Form A or C was weighed into 2-3 mL glass vials and media was added to achieve a solids loading of ˜5 mg/mL. Each slurry was magnetically agitated at 750-1000 rpm at 37° C., filtered via centrifugation, and the supernatant was analyzed by HPLC to determine solubility. In all cases, there was no polymorphic form change observed by XRPD analysis of the filtered solids.

[6] = Plasma PK in monkeys, nanosuspension; assay type: in vivo; settings: nanosuspension in deionized water, single oral 25 mg/kg
Protocol: Non-naïve male cynomolgus monkeys were used in this study with at least a 7-day washout period prior to dosing Animals were administered a nanosuspension of Form C as a single oral administration at 25 mg/kg. The nanosuspension was prepared by suspending nano-milled Form C in deionized water (5 mg/mL) to obtain an opaque homogenous suspension. Blood samples were collected at 0.25, 0.5, 1, 2, 4, 8, 24, 48, and 72 hours post-dose. Concentrations of Compound I in plasma samples were determined by LC/MS/MS.
A separate study was performed for a nanosuspension of Form A.

[7] = Dynamic vapor sorption (hygroscopicity); assay type: physicochemical; settings: DVS
Protocol: DVS analysis was carried out using a Surface Measurement System DVS Intrinsic analyzer. The instrument was calibrated with standard weights. Approximately 15-20 mg of sample was loaded into a pan for analysis. The sample was analyzed at 25° C. in 10% relative humidity (RH) steps from 0 to 95% RH (adsorption cycle) and from 95 to 0% RH (desorption cycle). The movement from one step to the next occurred either after satisfying the equilibrium criterion of 0.002% weight change (dm/dt) or, if the equilibrium criterion was not met, after ten hours.

[8] = Storage stability of amorphous Form D; assay type: physicochemical
Protocol: Form A was kept in an oven at 150° C. until all solids melted. The melt was kept at 150° C. for 5 minutes and was then taken out of the oven and cooled to room temperature.

[9] = 25° C./60% RH (open), 40° C./75% RH (open)
[10] = male, cynomolgus monkey, po, 15 mg/kg, micronized (d90 5)
[11] = male, cynomolgus monkey, po, 15 mg/kg, unmicronized (d90 43)
[12] = filtered solids after slurry in FaSSIF
[13] = filtered solids after slurry in FeSSIF
[14] = filtered solids after slurry in SGF
[15] = filtered solids after slurry in Water
[16] = micronized (d90 5), cynomolgus monkeys

## O=C(COc1ccc(Cl)cc1)NC12CC(c3nnc([C@H]4C[C@@H](OC(F)(F)F)C4)o3)(C1)C2 (single isomer, unassigned) [Form A, 2-(4-chlorophenoxy)-N-[3-[5-[cis-3-(trifluoromethoxy)cyclobutyl]-1,3,4-oxadiazol-2-yl]-1-bicyclo[1.1.1]pentanyl]acetamide]
[1]; 25° C./60% RH (open), 1 week
  DSC endotherm: 125.6 °C
  HPLC purity: 99.3%
  TGA loss (%, to 150° C.): 1.8%
  XRPD: Form A
[1]; 25° C./60% RH (open), 4 week
  DSC endotherm: 125.3 °C
  HPLC purity: 98.8%
  TGA loss (%, to 150° C.): 0.6%
  XRPD: Form A
[1]; [9]
  solid form stability (form change, weight gain, purity changes): No form change, weight gain, or purity changes
[1]; 40° C./75% RH (open), 1 week
  DSC endotherm: 125.4 °C
  HPLC purity: 99.3%
  TGA loss (%, to 150° C.): 0.9%
  XRPD: Form A
[1]; 40° C./75% RH (open), 4 week
  DSC endotherm: 125.1 °C
  HPLC purity: 98.7%
  TGA loss (%, to 150° C.): 0.7%
  XRPD: Form A
[1]; 60° C. (open), 1 week
  DSC endotherm: 125.2 °C
  HPLC purity: 99.3%
  TGA loss (%, to 150° C.): 0.7%
  XRPD: Form A
[1]; 60° C. (open), 4 week
  DSC endotherm: 125.1 °C
  HPLC purity: 98.8%
  TGA loss (%, to 150° C.): 0.6%
  XRPD: Form A
[1]; Initial
  DSC endotherm: 125.0 °C
  HPLC purity: 98.5%
  TGA loss (%, to 150° C.): 0.4%
  XRPD: Form A
[2]; Wistar Han, rat, po, 25 mg/kg
  Cmax: 105 ± 8 µM
[2]; Wistar Han, rat, po, 25 mg/kg, read-out: AUC0-48 h
  AUC(0-t): 1700 ± 271 µM·h
[2]; rat, Wistar Han rats, read-out: Tmax
  Tmax: 8 h
[3]; ACN/water (1:2), 5 ° C., 8 day
  Results (solid form after slurry): Form C
[3]; ACN/water (1:2), 22 ° C., 8 day
  Results (solid form after slurry): Form C
[3]; ACN/water (1:2), 60 ° C., 6 day
  Results (solid form after slurry): Form C
[3]; Form A (10 mg) and Form C (10 mg) in saturated IPA/water and MeCN/water, 5-60° C., 6-8 days
  solid form after slurry by XRPD and DSC: only Form C was present
[3]; IPA/water (1:1), 5 ° C., 8 day
  Results (solid form after slurry): Form C
[3]; IPA/water (1:1), 22 ° C., 8 day
  Results (solid form after slurry): Form C
[3]; IPA/water (1:1), 60 ° C., 6 day
  Results (solid form after slurry): Form C
[4]; [10]
  Cmax: 9.8 ± 4.1 µM
  AUC(0-t): 154 ± 44 µM·h
[4]; male, cynomolgus monkey, po, 15 mg/kg, micronized (d90 5), read-out: Tmax
  Tmax: 8 h
[4]; [11]
  Cmax: 5.6 ± 0.4 µM
  AUC(0-t): 92 ± 24 µM·h
[4]; male, cynomolgus monkey, po, 15 mg/kg, unmicronized (d90 43), read-out: Tmax
  Tmax: 4 h
[5]; FaSSIF
  Solubility: 25 µg/mL (≈ 54.6 µM)
[5]; FeSSIF
  Solubility: 44 µg/mL (≈ 96.1 µM)
[5]; SGF
  Solubility: 46 µg/mL (≈ 100 µM)
[5]; Water
  Solubility: 9.7 µg/mL (≈ 21.2 µM)
[5]; [12]
  Final XRPD: Form A
[5]; [13]
  Final XRPD: Form A
[5]; [14]
  Final XRPD: Form A
[5]; [15]
  Final XRPD: Form A
[5]; listed as Compound I Form A
  aqueous solubility: about 9.7 microgram/mL
[6]; male, cynomolgus monkey, po, 25 mg/kg
  Cmax: 25.4 ± 4.1 µM
[6]; male, cynomolgus monkey, po, 25 mg/kg, read-out: AUC0-24 h
  AUC(0-t): 451 ± 84 µM·h
[6]; male, cynomolgus monkey, po, 25 mg/kg, read-out: Tmax
  Tmax: 4 h
[7]
  Hygroscopicity: Non-hygroscopic
  weight change / form change after exposure to humidity: no form change

## O=C(COc1ccc(Cl)cc1)NC12CC(c3nnc([C@H]4C[C@@H](OC(F)(F)F)C4)o3)(C1)C2 (single isomer, unassigned) [Form C, 2-(4-chlorophenoxy)-N-[3-[5-[cis-3-(trifluoromethoxy)cyclobutyl]-1,3,4-oxadiazol-2-yl]-1-bicyclo[1.1.1]pentanyl]acetamide]
[1]; 25° C./60% RH (open), 2 week
  DSC endotherm: 133.7 °C
  HPLC purity: 99.7%
  TGA loss (%, to 150° C.): 0.4%
  XRPD: Form C
[1]; 25° C./60% RH (open), 4 week
  DSC endotherm: 133.3 °C
  HPLC purity: 99.7%
  TGA loss (%, to 150° C.): 0.3%
  XRPD: Form C
[1]; [9]
  solid form stability (form change, weight gain, purity changes): No form change, weight gain, or purity changes
[1]; 40° C./75% RH (open), 2 week
  DSC endotherm: 133.6 °C
  HPLC purity: 99.7%
  TGA loss (%, to 150° C.): 0.2%
  XRPD: Form C
[1]; 40° C./75% RH (open), 4 week
  DSC endotherm: 133.3 °C
  HPLC purity: 99.8%
  TGA loss (%, to 150° C.): 0.2%
  XRPD: Form C
[1]; 60° C. (closed), 2 week
  DSC endotherm: 133.6 °C
  HPLC purity: 99.8%
  TGA loss (%, to 150° C.): 0.3%
  XRPD: Form C
[1]; 60° C. (closed), 4 week
  DSC endotherm: 133.0 °C
  HPLC purity: 99.8%
  TGA loss (%, to 150° C.): 0.2%
  XRPD: Form C
[1]; Initial
  DSC endotherm: 133.1 °C
  HPLC purity: 99.8%
  TGA loss (%, to 150° C.): 0.1%
  XRPD: Form C
[2]; Wistar Han rats
  Tmax: 8 h
[2]; Wistar Han rats, 25 mg/kg
  AUC0-48 h: 1658 ± 211 μM-hr
  Cmax: 101 ± 10 µM
[4]; [16]
  AUC0-24 h: 117 ± 39 μM-hr
  Cmax: 7.6 ± 3.4 µM
  Tmax: 4 h
[5]; FaSSIF
  Solubility: 9.65 µg/mL (≈ 21.1 µM)
[5]; FeSSIF
  Solubility: 16.14 µg/mL (≈ 35.3 µM)
[5]; SGF
  Solubility: 0.56 µg/mL (≈ 1.22 µM)
[5]; Water
  Solubility: 1.02 µg/mL (≈ 2.23 µM)
[5]; [12]
  Final XRPD: Form C
[5]; [13]
  Final XRPD: Form C
[5]; [14]
  Final XRPD: Form C
[5]; [15]
  Final XRPD: Form C
[5]; listed as Compound I Form C
  aqueous solubility: about 1.02 micrograms/mL
[6]; cynomolgus monkeys
  AUC0-24 h: 367 ± 99 μM-hr
  Cmax: 21.7 ± 4.2 µM
  Tmax: 8 h
[7]
  Hygroscopicity: Non-hygroscopic
  weight change / form change after exposure to humidity: no weight change and no polymorphic change

## O=C(COc1ccc(Cl)cc1)NC12CC(c3nnc([C@H]4C[C@@H](OC(F)(F)F)C4)o3)(C1)C2 [Form D, 2-(4-chlorophenoxy)-N-[3-[5-[cis-3-(trifluoromethoxy)cyclobutyl]-1,3,4-oxadiazol-2-yl]-1-bicyclo[1.1.1]pentanyl]acetamide]
[8]; standing at room temperature or higher (25° C.-50° C.) for several days
  storage stability of form: convert to Form C
[8]; stored at 5° C.
  storage stability of form: stable for 7 days
[8]; stored at RT-60° C., 7 days
  storage stability of form: converted to Form C
